Structures can show the parent of a compound that is named as a salt.
These compounds were tested against LC3B (Homo sapiens, UniProt Q9GZQ8) (assay: Fluorescence Polarization (FP) Assay: displacement of FITC-labeled peptide from GST-LC3B). Conditions: Fluorescence Polarization assay; GST-LC3B 180 nM, FITC-labeled peptide 18 nM, 25° C.; read-out: IC50.
Assay type: binding
Protocol: The compounds of the present invention for regulating the autophagy-related protein LC3B were tested by Fluorescence Polarization (FP) Assay.
Fluorescence Polarization (FP) Assay Test

| SMILES | IC50 [µM] |
| --- | --- |
| O=C1CC(COc2cccc(F)c2)CC(=O)C1=CNCCN1CCN(CCO)CC1 (centres unmarked) [Compound 32, 5-((3-fluorophenoxy)methyl)-2-(((2-(4-(2-hydroxyethyl)piperazin-1-yl)ethyl)amino)methylene) cyclohexane-1,3-dione] | 3 to 15 |
| O=C1CC(c2ccc(-c3ncnc4[nH]cnc34)cc2)CC(=O)C1=CNCCN1CCN(CCO)CC1 (centres unmarked) [Compound 33, 5-(4-(9H-purin-6-yl)phenyl)-2-(((2-(4-(2-hydroxyethyl)piperazin-1-yl)ethyl)amino)methylene)cyclohexane-1,3-dione] | 15 to 100 |
| COCCOCCOc1cccc(C2CC(=O)C(=CNCCN3CCN(CCO)CC3)C(=O)C2)c1 (centres unmarked) [Compound 34, 2-(((2-(4-(2-hydroxyethyl)piperazin-yl)ethyl)amino)methylene)-5-(3-(2-(2-methoxyethoxy)ethoxy)phenyl)cyclohexane-1,3-dione] | < 3 |
| CN1CCN(c2ccc(C3CC(=O)C(=CNCCN4CCN(CCO)CC4)C(=O)C3)cc2)CC1 (centres unmarked) [Compound 36, 2-(((2-(4-(2-hydroxyethyl)piperazin-1-yl)ethyl)amino)methylene)-5-(4-(4-methylpiperazin-1-yl)phenyl) cyclohexane-1,3-dione] | 100 to 1000 |
| O=C1CC(c2cccs2)CC(=O)C1=CNCCN1CCN(CCO)CC1 (centres unmarked) [Compound 37, 2-(((2-(4-(2-hydroxyethyl)piperazin-1-yl)ethyl)amino)methylene)-5-(thiophen-2-yl) cyclohexane-1,3-dione] | < 3 |
| COCCOc1ccc(C2CC(=O)C(=CNCCN3CCN(CCO)CC3)C(=O)C2)cc1 (centres unmarked) [Compound 44, 2-(((2-(4-(2-hydroxyethyl)piperazin-1-yl)ethyl)amino)methylene)-5-(4-(2-methoxyethoxy)phenyl) cyclohexane-1,3-dione] | 15 to 100 |
| COCCOCCOc1ccc(C2CC(=O)C(=CNCCN3CCN(CCO)CC3)C(=O)C2)cc1 (centres unmarked) [Compound 45, 2-(((2-(4-(2-hydroxyethyl)piperazin-1-yl)ethyl)amino)methylene)-5-(4-(2-(2-methoxyethoxy)ethoxy)phenyl) cyclohexane-1,3-dione] | 15 to 100 |
| COc1ccc(C2CC(=O)C(=CNCCN3CCN(CCO)CC3)C(=O)C2)c(OC)c1 (centres unmarked) [Compound 46, 5-(2,4-dimethoxyphenyl)-2-(((2-(4-(2-hydroxyethyl)piperazin-1-yl)ethyl)amino)methylene) cyclohexane-1,3-dione] | < 3 |
| O=C1CC(c2ccc(C(F)(F)F)cc2)CC(=O)C1=CNCCN1CCN(CCO)CC1 (centres unmarked) [Compound 48, 2-(((2-(4-(2-hydroxyethyl)piperazin-1-yl)ethyl)amino)methylene)-5-(4-(trifluoromethyl)phenyl) cyclohexane-1,3-dione] | < 3 |
| O=C1CC(c2ccc(F)cc2)CC(=O)C1=CNCCN1CCN(CCO)CC1 (centres unmarked) [Compound 49, 5-(4-fluorophenyl)-2-(((2-(4-(2-hydroxyethyl)piperazin-1-yl)ethyl)amino)methylene) cyclohexane-1,3-dione] | < 3 |
| O=C1CC(c2ccc(OC(F)(F)F)cc2)CC(=O)C1=CNCCN1CCN(CCO)CC1 (centres unmarked) [Compound 50, 2-(((2-(4-(2-hydroxyethyl)piperazin-1-yl)ethyl)amino)methylene)-5-(4-(trifluoromethoxy)phenyl) cyclohexane-1,3-dione] | < 3 |
| COc1ccc(C2CC(=O)C(=CNCCN3CCN(CCO)CC3)C(=O)C2)c2ccccc12 (centres unmarked) [Compound 54, 2-(((2-(4-(2-hydroxyethyl)piperazin-1-yl)ethyl)amino)methylene)-5-(4-methoxy-naphthalen-1-yl)cyclohexane-1,3-dione] | < 3 |
| Cn1cccc1C1CC(=O)C(=CNCCN2CCN(CCO)CC2)C(=O)C1 (centres unmarked) [Compound 55, 2-(((2-(4-(2-hydroxyethyl)piperazin-1-yl)ethyl)amino)methylene)-5-(1-methyl-1H-pyrrol-2-yl)cyclohexane-1,3-dione] | 15 to 100 |
| O=C1CC(c2cccc3c2OCCO3)CC(=O)C1=CNCCN1CCN(CCO)CC1 (centres unmarked) [Compound 56, 5-(2,3-dihydrobenzo [b][1,4]dioxin-5-yl)-2-(((2-(4-(2-hydroxyethyl)piperazin-1-yl)ethyl)amino)methylene) cyclohexane-1,3-dione] | 3 to 15 |
| O=C1CC(c2nccs2)CC(=O)C1=CNCCN1CCN(CCO)CC1 (centres unmarked) [Compound 57, 2-(((2-(4-(2-hydroxyethyl)piperazin-1-yl)ethyl)amino)methylene)-5-(thiazol-2-yl) cyclohexane-1,3-dione] | 15 to 100 |
| O=C1CC(c2c[nH]cn2)CC(=O)C1=CNCCN1CCN(CCO)CC1 (centres unmarked) [Compound 59, 2-(((2-(4-(2-hydroxyethyl)piperazin-1-yl)ethyl)amino)methylene)-5-(1H-imidazol-4-yl) cyclohexane-1,3-dione] | 100 to 1000 |
| O=C1CC(c2c3ccccc3cc3ccccc23)CC(=O)C1=CNCCN1CCN(CCO)CC1 (centres unmarked) [Compound 61, 5-(anthracen-9-yl)-2-(((2-(4-(2-hydroxyethyl)piperazin-1-yl)ethyl)amino)methylene) cyclohexane-1,3-dione] | < 3 |
| CCC(CC)C1CC(=O)C(=CNCCN2CCN(CCO)CC2)C(=O)C1 (centres unmarked) [Compound 63, 2-(((2-(4-(2-hydroxyethyl)piperazin-1-yl)ethyl)amino)methylene)-5-(pentan-3-yl) cyclohexane-1,3-dione] | 15 to 100 |
| O=C1CC(c2csc3ccccc23)CC(=O)C1=CNCCN1CCN(CCO)CC1 (centres unmarked) [Compound 66, 5-(benzo[b]thiophen-3-yl)-2-(((2-(4-(2-hydroxyethyl)piperazin-1-yl)ethyl)amino)methylene) cyclohexane-1,3-dione] | < 3 |
| O=C1CC(c2cccc3[nH]ccc23)CC(=O)C1=CNCCN1CCN(CCO)CC1 (centres unmarked) [Compound 68, 2-(((2-(4-(2-hydroxyethyl)piperazin-1-yl)ethyl)amino)methylene)-5-(1H-indol-4-yl) cyclohexane-1,3-dione] | < 3 |
| O=C1CC(C2CCNCC2)CC(=O)C1=CNCCN1CCN(CCO)CC1 (centres unmarked) [Compound 70, 2-(((2-(4-(2-hydroxyethyl)piperazin-1-yl)ethyl)amino)methylene)-5-(piperidin-4-yl) cyclohexane-1,3-dione HCl salt] | 100 to 1000 |
| O=C1CC(c2ccc(OCCOc3ccncc3)cc2)CC(=O)C1=CNCCN1CCN(CCO)CC1 (centres unmarked) [Compound 71, 2-(((2-(4-(2-hydroxyethyl)piperazin-1-yl)ethyl)amino)methylene)-5-(4-(2-(pyridin-4-yloxy)ethoxy)phenyl) cyclohexane-1,3-dione] | 15 to 100 |

Further lines, results first:

| IC50 [µM] | SMILES |
| --- | --- |
| 15 to 100 | O=C1CC(c2ccc(N3CCOCC3)cc2)CC(=O)C1=CNCCN1CCN(CCO)CC1 (centres unmarked) [Compound 35, 2-(((2-(4-(2-hydroxyethyl)piperazin-1-yl)ethyl)amino)methylene)-5-(4-morpholinophenyl) cyclohexane-1,3-dione] |
| < 3 | O=C1CC(c2c[nH]c3ccccc23)CC(=O)C1=CNCCN1CCN(CCO)CC1 (centres unmarked) [Compound 39, 2-(((2-(4-(2-hydroxyethyl)piperazin-1-yl)ethyl)amino)methylene)-5-(1H-indol-3-yl) cyclohexane-1,3-dione] |
| < 3 | O=C1CC(c2ccc(O)cc2)CC(=O)C1=CNCCN1CCN(CCO)CC1 (centres unmarked) [Compound 40, 2-(((2-(4-(2-hydroxyethyl)piperazin-1-yl)ethyl)amino)methylene)-5-(4-hydroxyphenyl) cyclohexane-1,3-dione] |
| 3 to 15 | COCCOCCOc1ccccc1C1CC(=O)C(=CNCCN2CCN(CCO)CC2)C(=O)C1 (centres unmarked) [Compound 41] |
| 3 to 15 | COCCOc1ccccc1C1CC(=O)C(=CNCCN2CCN(CCO)CC2)C(=O)C1 (centres unmarked) [Compound 42, 2-(((2-(4-(2-hydroxyethyl)piperazin-1-yl)ethyl)amino)methylene)-5-(2-(2-methoxyethoxy)phenyl) cyclohexane-1,3-dione] |
| 3 to 15 | O=C1CC(c2ccco2)CC(=O)C1=CNCCN1CCN(CCO)CC1 (centres unmarked) [Compound 43, 5-(furan-2-yl)-2-(((2-(4-(2-hydroxyethyl)piperazin-1-yl)ethyl)amino)methylene) cyclohexane-1,3-dione] |
| 15 to 100 | N#Cc1ccc(C2CC(=O)C(=CNCCN3CCN(CCO)CC3)C(=O)C2)cc1 (centres unmarked) [Compound 51, 2-(((2-(4-(2-hydroxyethyl)piperazin-1-yl)ethyl)amino)methylene)-5-(4-(cyano)phenyl) cyclohexane-1,3-dione] |
| 15 to 100 | O=C1CC(c2ccccn2)CC(=O)C1=CNCCN1CCN(CCO)CC1 (centres unmarked) [Compound 53, 2-(((2-(4-(2-hydroxyethyl)piperazin-1-yl)ethyl)amino)methylene)-5-(pyridin-2-yl) cyclohexane-1,3-dione] |
| 3 to 15 | O=C1CC(c2ccnc3ccccc23)CC(=O)C1=CNCCN1CCN(CCO)CC1 (centres unmarked) [Compound 62, 2-(((2-(4-(2-hydroxyethyl)piperazin-1-yl)ethyl)amino)methylene)-5-(quinolin-4-yl) cyclohexane-1,3-dione] |
| 100 to 1000 | O=C1CC(C2CCOCC2)CC(=O)C1=CNCCN1CCN(CCO)CC1 (centres unmarked) [Compound 64, 2-(((2-(4-(2-hydroxyethyl)piperazin-1-yl)ethyl)amino)methylene)-5-(tetrahydro-2H-pyran-4-yl)cyclohexane-1,3-dione] |
| 100 to 1000 | CS(=O)(=O)c1ccc(C2CC(=O)C(=CNCCN3CCN(CCO)CC3)C(=O)C2)cc1 (centres unmarked) [Compound 65, 2-(((2-(4-(2-hydroxyethyl)piperazin-1-yl)ethyl)amino)methylene)-5-(4-(methylsulfonyl)phenyl) cyclohexane-1,3-dione] |
| 100 to 1000 | O=C1CC(C2CC2)CC(=O)C1=CNCCN1CCN(CCO)CC1 (centres unmarked) [Compound 67, 5-cyclopropyl-2-(((2-(4-(2-hydroxyethyl)piperazin-1-yl)ethyl)amino)methylene) cyclohexane-1,3-dione] |
| 15 to 100 | CC(c1ccccc1)C1CC(=O)C(=CNCCN2CCN(CCO)CC2)C(=O)C1 (centres unmarked) [Compound 69, 2-(((2-(4-(2-hydroxyethyl)piperazin-1-yl)ethyl)amino)methylene)-5-(1-phenylethyl) cyclohexane-1,3-dione] |

Reference: US11319303B2 (WIGEN BIOMEDICINE TECHNOLOGY (SHANGHAI) CO., LTD., priority 2017, dated 2022)
